Results published in ChEMBL document CHEMBL1201862, “PubChem BioAssay data set” (2004).
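Cultured in 96-well plates, cells were exposed to test compound for 48 hours across five concentrations. GI50 marks 50% less growth.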 Calls of active or inactive are those of the source. No stated cut-off is given here; in the data, active = GI50 up to about 1.1 µM and inactive = higher.

Key:
Assay in all cases: DTP human tumour cell line panel, 48 h
[1] = tested on: A498
[2] = tested on: A549
[3] = tested on: COLO 205
[4] = tested on: EKVX
[5] = tested on: HCC 2998
[6] = tested on: HCT-15
[7] = tested on: HL-60
[8] = tested on: Hs-578T
[9] = tested on: IGROV-1
[10] = tested on: MDA-N
[11] = tested on: NCI/ADR-RES
[12] = tested on: OVCAR-5
[13] = tested on: PC-3
[14] = tested on: RXF 393
[15] = tested on: SF-539
[16] = tested on: SK-MEL-5
[17] = tested on: SN12C
[18] = tested on: SNB-19
[19] = tested on: SNB-75

| SMILES | GI50 [1] | GI50 [2] | GI50 [3] | GI50 [4] | GI50 [5] | GI50 [6] [µM] | GI50 [7] | GI50 [8] | GI50 [9] | GI50 [10] | GI50 [11] | GI50 [12] | GI50 [13] | GI50 [14] | GI50 [15] | GI50 [16] | GI50 [17] | GI50 [18] | GI50 [19] |
| --- | --- | --- | --- | --- | --- | --- | --- | --- | --- | --- | --- | --- | --- | --- | --- | --- | --- | --- | --- |
| CN1N=C(c2ccncc2)OC1c1cccc(C(F)(F)F)c1 (stereo not given) | > 100 µM (inactive) | > 100 µM (inactive) | > 100 µM (inactive) | > 100 µM (inactive) | > 100 µM (inactive) | > 100 | 81.3 µM (inactive) | > 100 µM (inactive) | > 100 µM (inactive) | > 100 µM (inactive) | > 100 µM (inactive) | > 100 µM (inactive) | > 100 µM (inactive) | > 100 µM (inactive) | 27.5 µM (inactive) | > 100 µM (inactive) | > 100 µM (inactive) | > 100 µM (inactive) | 4.36 µM (inactive) |
| CC(=O)Nc1ccc(S(=O)(=O)c2nnc(NC(C)=O)s2)cc1 | > 100 µM (inactive) | > 100 µM (inactive) | 0.215 µM (active) | > 100 µM (inactive) | > 100 µM (inactive) | > 100 | > 100 µM (inactive) | > 100 µM (inactive) | > 100 µM (inactive) | > 100 µM (inactive) | > 100 µM (inactive) | > 100 µM (inactive) | 0.401 µM (active) | > 100 µM (inactive) | > 100 µM (inactive) | > 100 µM (inactive) | > 100 µM (inactive) | > 100 µM (inactive) | > 100 µM (inactive) |
| CC(=O)NCC1OC2COC(c3ccccc3)OC2C(NC(=O)c2ccccc2)C1OC(=O)c1ccccc1 (stereo not given) | 44.5 µM (inactive) | > 100 µM (inactive) | > 100 µM (inactive) | > 100 µM (inactive) | > 100 µM (inactive) | > 100 | 85.5 µM (inactive) | > 100 µM (inactive) |  | > 100 µM (inactive) | > 100 µM (inactive) | > 100 µM (inactive) | 33.3 µM (inactive) | 35 µM (inactive) | > 100 µM (inactive) | > 100 µM (inactive) | 60.3 µM (inactive) | > 100 µM (inactive) | > 100 µM (inactive) |
| Cc1ncc(CO)c(/C=N/CCCCCC/N=C/c2c(CO)cnc(C)c2[O-])c1[O-].[Mg+2] | > 100 µM (inactive) | > 100 µM (inactive) | > 100 µM (inactive) | > 100 µM (inactive) | > 100 µM (inactive) | > 100 | > 100 µM (inactive) | > 100 µM (inactive) | > 100 µM (inactive) | > 100 µM (inactive) | > 100 µM (inactive) | > 100 µM (inactive) | > 100 µM (inactive) | > 100 µM (inactive) | > 100 µM (inactive) | > 100 µM (inactive) | > 100 µM (inactive) | > 100 µM (inactive) | 99.5 µM (inactive) |
| C[C@]12CC[C@H](O)C[C@@H]1CC[C@@H]1[C@@H]2CC[C@]2(C)[C@@H](c3cc(C(F)(F)F)[nH]n3)CC[C@@H]12 | 8.59 µM (inactive) | 4.8 µM (inactive) | 4.13 µM (inactive) | 10.8 µM (inactive) | 15 µM (inactive) | 6.32 | 0.908 µM (active) | > 35.6 µM (inactive) | 6.32 µM (inactive) | 10.8 µM (inactive) | 6.32 µM (inactive) | 10.5 µM (inactive) | 6.38 µM (inactive) | 4.15 µM (inactive) | 7.36 µM (inactive) | 6.82 µM (inactive) | 7.59 µM (inactive) | 9.68 µM (inactive) | 11.6 µM (inactive) |
| OC[C@H]1CC(c2nn[nH]n2)[C@H](O)[C@@H]1O (stereo not given in full) | > 100 µM (inactive) | > 100 µM (inactive) | > 100 µM (inactive) |  | > 100 µM (inactive) | > 100 | > 100 µM (inactive) | > 100 µM (inactive) | > 100 µM (inactive) | > 100 µM (inactive) | > 100 µM (inactive) | > 100 µM (inactive) | > 100 µM (inactive) | 8.13 µM (inactive) | > 100 µM (inactive) | > 100 µM (inactive) | > 100 µM (inactive) | > 100 µM (inactive) | > 100 µM (inactive) |
| C[C@H]1O[C@@H](c2c(O)ccc3ccccc23)C[C@@H](N(C)C)C1O (stereo not given in full) | 51.9 µM (inactive) | > 100 µM (inactive) | 65.3 µM (inactive) | > 100 µM (inactive) | 36.6 µM (inactive) | > 100 | 85.1 µM (inactive) | 80.4 µM (inactive) | 73.6 µM (inactive) | > 100 µM (inactive) | > 100 µM (inactive) | > 100 µM (inactive) | 48.3 µM (inactive) | 20.7 µM (inactive) | > 100 µM (inactive) | 40.4 µM (inactive) | > 100 µM (inactive) | > 100 µM (inactive) | 43.8 µM (inactive) |
| C=CCSC1=N/C(=C\c2ccc(OC)cc2)C(=O)N1CC=C | 14.9 µM (inactive) | 30.9 µM (inactive) | 20.4 µM (inactive) | 19.7 µM (inactive) | 23.9 µM (inactive) | 20.8 | 16 µM (inactive) | 64.7 µM (inactive) | > 100 µM (inactive) | 23.2 µM (inactive) | 27.6 µM (inactive) | 57.8 µM (inactive) | 20.8 µM (inactive) | 14.6 µM (inactive) | 36.6 µM (inactive) | 15.6 µM (inactive) | 24.1 µM (inactive) | 84.3 µM (inactive) |  |
| CC1=NN(C(=O)CC(=O)Nc2ccc(C)cc2)C(=O)C1/N=N/c1ccc(C(=O)O)cc1 (stereo not given) | > 100 µM (inactive) | > 100 µM (inactive) | > 100 µM (inactive) | > 100 µM (inactive) | > 100 µM (inactive) | > 100 | > 100 µM (inactive) | 85.7 µM (inactive) | > 100 µM (inactive) | > 100 µM (inactive) | > 100 µM (inactive) | > 100 µM (inactive) | > 100 µM (inactive) | > 100 µM (inactive) | > 100 µM (inactive) | > 100 µM (inactive) | > 100 µM (inactive) | > 100 µM (inactive) | > 100 µM (inactive) |
| N[C@H]1c2c(Br)sc(Br)c2C(=O)[C@H]1O | > 100 µM (inactive) | 24.9 µM (inactive) | 6.18 µM (inactive) | 12.9 µM (inactive) | 13.8 µM (inactive) | 6.78 | 2.85 µM (inactive) | 31 µM (inactive) | 14 µM (inactive) | 13.2 µM (inactive) | 16 µM (inactive) | 22 µM (inactive) | 28.5 µM (inactive) | 4.95 µM (inactive) | 18.5 µM (inactive) | 12.5 µM (inactive) | 1.56 µM (inactive) | 21.8 µM (inactive) | 29.2 µM (inactive) |
| COc1cc(C)c(/C=C/C(=O)N2C(=O)OC[C@@H]2c2ccccc2)c(C)c1 | 52.5 µM (inactive) | > 100 µM (inactive) | > 100 µM (inactive) | 98.9 µM (inactive) | 73.1 µM (inactive) | 74 | 98.4 µM (inactive) | 88.9 µM (inactive) | > 100 µM (inactive) | > 100 µM (inactive) | 28.6 µM (inactive) | > 100 µM (inactive) | 50.4 µM (inactive) | 9.02 µM (inactive) | > 100 µM (inactive) | 60.8 µM (inactive) | > 100 µM (inactive) | > 100 µM (inactive) | 34.3 µM (inactive) |
| Cc1ccc(-c2c(C#N)c(-c3ccc([N+](=O)[O-])cc3)c(C#N)c(=O)n2NS(=O)(=O)c2ccc(C)cc2)cc1 | 67.8 µM (inactive) | 51.9 µM (inactive) | 80.4 µM (inactive) | 47.5 µM (inactive) | 29.4 µM (inactive) | 41.6 | 31.3 µM (inactive) | 30.7 µM (inactive) | 24.7 µM (inactive) | 75.9 µM (inactive) | 38.1 µM (inactive) | > 100 µM (inactive) | 42.8 µM (inactive) | 52.2 µM (inactive) | 38.1 µM (inactive) | 19.8 µM (inactive) | 50 µM (inactive) | 56.6 µM (inactive) | 74.5 µM (inactive) |
| [O-][n+]1cn[n+]([O-])c2ccccc21 | 61.4 µM (inactive) | 39.6 µM (inactive) | 19.2 µM (inactive) | 33 µM (inactive) | 27.1 µM (inactive) | 16.4 | 5.04 µM (inactive) | 57.1 µM (inactive) | 11.2 µM (inactive) | 20.1 µM (inactive) | 23.5 µM (inactive) | > 100 µM (inactive) | 11.7 µM (inactive) | 20.7 µM (inactive) | 22.3 µM (inactive) | > 10 µM (inactive) | 38.3 µM (inactive) | 84.1 µM (inactive) | 66.5 µM (inactive) |
| N#Cc1c(-c2ccc([N+](=O)[O-])cc2)c2c([nH]c1=O)-c1ccccc1CCC2 | 46.3 µM (inactive) | 42.8 µM (inactive) | 83.9 µM (inactive) | > 100 µM (inactive) | 22.6 µM (inactive) | 31.3 | 43 µM (inactive) | 75 µM (inactive) | 46.8 µM (inactive) | 94.2 µM (inactive) | 50.5 µM (inactive) | > 100 µM (inactive) | 80.2 µM (inactive) | 30.9 µM (inactive) | 52.7 µM (inactive) | 51.9 µM (inactive) | > 100 µM (inactive) | 70.1 µM (inactive) |  |
| O=c1[nH]cc(/N=C/c2cc(Cl)ccc2O)c(=O)[nH]1 | > 100 µM (inactive) | > 100 µM (inactive) | 25.3 µM (inactive) | 32.1 µM (inactive) | 23.6 µM (inactive) | 2.22 | 4.71 µM (inactive) | 47.2 µM (inactive) | 7.83 µM (inactive) | 37.8 µM (inactive) | 13.1 µM (inactive) | 22.4 µM (inactive) | 8.83 µM (inactive) | 81.7 µM (inactive) | 1.89 µM (inactive) | 20.1 µM (inactive) | 9.04 µM (inactive) | 20.7 µM (inactive) |  |
